We go through five compounds from publication PMC12176268, “Structural Features and Photophysical and Antiproliferative Properties of Me2N‑pbt-Cycloplatinated Complexes with Picolinate Ligands” (Inorganic Chemistry, 2025).

One data set relates to CT-DNA. Nature of the data set: Interaction with CT-DNA by circular dichroism. Particulars: 50 μM CT-DNA, 50 μM cisplatin, 37 °C, 24 h in the dark (positive control). The data set is classed as binding, calf. Here is the method: Platinum(II) complexes, such as cisplatin, presenting exchangeable ligands are well known to interact with puric bases of DNA, leading to the formation of intra- and interstrand cross-links and in turn to transcription inhibition, cell cycle arrest, and ultimately cell death. Based on the reactivity in the cell culture medium, the interaction of complexes 1–4 and cisplatin with CT-DNA was investigated by circular dichroism (CD) spectroscopy after incubation at 37 °C for 24 h in the dark or for 4 h incubation and 5 min irradiation at 450 nm, followed by 20 h incubation, following a reported protocol. The CD spectrum of CT-DNA presents a positive peak at 280 nm, assigned to base stacking, and a negative peak at 245 nm, assigned to helicity.
A stock solution of calf thymus DNA (CT-DNA) was prepared in 5 mM TRIS·HCl, and 50 mM NaCl (pH 7.4). The concentration of nucleotides was assayed at 260 nm using ε = 6600 M^–1.cm^–1 (c = 3.38 mM). […] Circular dichroism spectra (238–340 nm, 5 scans) were recorded in a 1 cm path length cell on a J-815 CD spectrometer (JASCO) at 20 °C with 0.1 nm data pitch, 50 nm/min scan speed, and 1 nm bandwidth.
Background: Circular dichroism is widely used to follow secondary structure.

The subject of data set [1] is MDA-MB-231. More on the design: method as in earlier work. The conditions noted are these: 72 h, dark; footnote b: values taken from ref (number not given); cited from earlier work.
Data set [2] relates to A549. Also on record: method as in earlier work. The conditions noted are these: 72 h, dark; footnote b: values taken from ref (number not given); cited from earlier work.
Data set [3] has as its system MCF-10A. Also on record: method as in earlier work. The conditions noted are these: 72 h, dark; footnote b: values taken from ref (number not given); cited from earlier work.
Data set [4] concerns MDA-MB-231. Nature of the data set: MTT cell viability assay on MDA-MB-231 cells, dark and 450 nm irradiation. The data set is classed as cell-based, human. The conditions noted are these: for EC50: MTT. The source says: (§1) (C∧N) cyclometalated Pt(II) complexes have been previously reported to have strong antiproliferative activities when associated with phenanthroline-based, diphosphine, acyclic diamino carbenes, or picolinate ligands. In particular, (Me2N-pbt)-cyclometalated platinum complexes have been previously reported by some of us to have antiproliferative properties in the micromolar range on a panel of cancer cell lines, prompting us to investigate the anticancer properties of complexes 1–4 in dark conditions and, considering their high quantum yield (ϕΔ) of ^1O2 generation, under irradiation conditions. Due to the poor solubility of the complexes in an aqueous environment, complexes 1–4 were first dissolved in DMSO and diluted in the culture media to reach a final concentration of 1% DMSO when incubated with the cells. All complexes were screened against the so-called “triple-negative” breast cancer cell line MDA-MB-231, lung adenocarcinoma cell line A549, and the noncancerous breast cell line MCF-10A for 72 h in dark conditions and under 5 min irradiation at 450 nm (see Experimental Section for details). The irradiation time was kept short to prevent light-induced toxicity of the energetic wavelength observed at longer irradiation times (data not shown). The measurement of the effective concentration at 50% (EC50) was carried out using the classical MTT assay, and the data are provided in Table .
(§2) In dark conditions, we could notice a strong influence of substituents on the picolinate ligands. […] This can be correlated with its poor stability in the culture medium mentioned above, which might reduce its cellular uptake. […] However, in dark conditions, no particular selectivity for cancer cells could be observed with similar activity measured against the noncancerous cell line MCF-10A. For the “light” experiments, the cells were preincubated with the complexes for 4 h in the dark, irradiated at 450 nm for 5 min, and then put back in the dark until 72 h. The photoactivity index (PI) values, defined as the ratio between the EC50 in dark conditions and the EC50 after irradiation for each cell line, are shown in Figure .
(§3) The human lung adenocarcinoma cell line A549 and human breast cancer cell line MDA-MB-231 were cultivated in DMEM (Dulbecco’s modified Eagle’s medium) containing GlutaMax I supplemented with 10% FBS at 37 °C in a humidified atmosphere and 5% CO2. The noncancerous cell line MCF-10A was maintained in DMEM:F12 (1:1) cell culture media, 5% heat-inactivated horse serum, supplemented with HEPES (20 mM), L-glutamine (2 mM), epidermal growth factor (20 ng/mL), hydrocortisone (500 ng/mL), cholera toxin (100 ng/mL), and insulin (10 μg/mL). Cell viability was evaluated by using a colorimetric method based on the tetrazolium salt MTT [3-(4,5-dimethylthiazol-2-yl)-2,5-diphenyltetrazolium bromide], which is reduced by viable cells to yield purple formazan crystals. Cells were seeded in 96-well plates at a density of 40000 cells/mL (100 μL per well). Stock solutions were prepared in DMSO for complexes 1–4 and in water for cisplatin. […] For dark experiments, after overnight attachment, a dilution series of the compounds was added to the medium, and the cells were incubated for a further 72 h. For the irradiated experiments, after overnight attachment, a dilution series of the compounds was added to the medium, and the cells were preincubated for 4 h. The cells were then irradiated at 450 nm for 5 min with a Kessil Lamp (power: 3 mW/cm^2, 1.13 × 10^–8 Einstein/s at 20 cm distance between the light source and 96-well plate) and the incubation was continued until 72 h. After 72 h, the medium was removed and the cells were incubated with MTT solution in PBS (10 μL of 5 mg/mL) for 2–3 h. The formed purple formazan crystals were dissolved in 100 μL of DMSO by thorough shaking, and the absorbance at 580 nm was read using a microplate reader (FLUOstar OPTIMA, BMG Labtech). Each test was performed with at least 3 replicates and repeated at least 3 times. […]
(In general: Tetrazolium assays rely on reduction of a dye to a coloured formazan, in cell work by metabolically active cells.)

The test system of data set [5] is A549. Nature of the data set: MTT cell viability assay on A549 cells, dark and 450 nm irradiation. Particulars: for EC50: MTT. The data set is classed as cell-based, human.
Excerpt: as §1, §2, §3

Data set [6] concerns MCF-10A. Nature of the data set: MTT cell viability assay on noncancerous MCF-10A cells, dark and 450 nm irradiation. The data set is classed as cell-based, human. The conditions noted are these: for EC50: MTT.
Excerpt: as §1, §2, §3

Data set [7] in a line: Singlet oxygen generation, NIR emission at 1274 nm versus phenalenone. The data set is classed as physicochemical. The conditions noted are these: aerated acetonitrile 5 × 10^–5 M, 298 K, excitation 365 nm, reference phenalenone. Here is the method: In aerated DMSO solutions, complexes 1–3 display a fluorescence band only at ca 510 nm, attributed to ^1LL′CT/^1ILCT, due to easy quenching of the phosphorescence by oxygen. However, upon prolonged photoexcitation at 365 nm, a continuous enhancement of the phosphorescence band is observed. Simply irradiating with a hand UV–vis lamp, the initial blue-green emission gradually shifts to the orange enhanced emission. The phosphorescence increases its maximum intensity in ca 15 1, 8 2, or 12 min 3 (Figures and S23). […] This relatively rare behavior has been previously observed by us , and other groups, and is explained by the occurrence of a local sensitization caused by energy transfer from the low-energy triplet to ^3O2-producing singlet ^1O2, which is able to selectively react with the solvent creating a free oxygen microenvironment that switches-on a phosphorescence band due to ^3ILCT at 580 nm. The strong sensitivity of the phosphorescence emission in these complexes encourages us to determine their efficiency as ^1O2 sensitizers. The singlet oxygen generation of complexes 1–3 was examined in acetonitrile solution (5 × 10^–5 M) using a near-infrared detector upon excitation at 365 nm, detecting the characteristic emission profile of ^1O2 at λem ∼ 1274 nm (Figure ).

The nature of data set [8]: Stability in serum-free DMEM containing 5% DMSO by UV–vis. The data set is classed as physicochemical. The conditions noted are these: DMEM with 5% DMSO, 25 μM, 37 °C; for stability in serum-free DMEM, UV–vis spectral changes, first 4 h: dark or with 5 min irradiation at 450 nm. The source says:
The stability of complexes 1–4 was then investigated in more biologically relevant media by UV–visible spectroscopy. First, the stability of the complexes was studied in phosphate-buffered saline (PBS) containing 5% DMSO (Figure S30). […] Only a decrease in the intensity of all bands was observed, which could be attributed to partial aggregation and/or precipitation. […] The stability of complexes 1–4 was next studied in serum-free DMEM cell culture containing 5% DMSO (Figure S31). […] This final species seemed to have spectral features similar to those observed for complex 4 (Figure S31A). […] The similarity of the spectral features of the transformed species in all cases seemed to point to the formation of a common species upon incubation in DMEM, which we tentatively attribute to the decoordination of the picolinate ligands with a substituent-dependent kinetics; the COOH group favored the release of the picolinate ligand, while both NH2 and OH substituents seemed to slow down this process.
The UV–vis spectra of complexes 1–4 were recorded in PBS:DMSO (95/5) and serum-free DMEM:DMSO (95/5) at a concentration of 25 μM on a Cary 50 spectrophotometer (Varian).

A short description of the next data set: Solubility (statements). The data set is classed as physicochemical.
The test system of data set [9] is A549. Also on record: method as in not given. The conditions noted are these: previously reported by the authors, ref not given, cited from earlier work.
For a further data set, the system named is HeLa. Also on record: method as in not given. Particulars: previously reported by the authors, ref not given, cited from earlier work.
The mark [10] stands for this setting: 4 h preincubation, 5 min irradiation at 450 nm, then dark until 72 h, read-out: EC50 MDA-MB-231 light.
[11] abbreviates: 72 h incubation at 37 °C, dark, read-out: EC50 MDA-MB-231 dark.
Setting [12] is: 4 h preincubation, 5 min irradiation at 450 nm, then dark until 72 h, read-out: EC50 A549 light.
[13] abbreviates: 72 h incubation at 37 °C, dark, read-out: EC50 A549 dark.
Setting [14] is: 4 h preincubation, 5 min irradiation at 450 nm, then dark until 72 h, read-out: EC50 MCF-10A light.
Where [15] appears, read: 72 h incubation at 37 °C, dark, read-out: EC50 MCF-10A dark.

Read-outs that look alike come from different tables or passages of the source. Bounds are passed on as bounds.

As a reminder, the EC50 is the concentration needed to bring the measured effect to its halfway point. A word on the IC50: it is the point on the concentration scale where inhibition reaches its midpoint.

With `N.N.[Cl][Pt][Cl]` [Cisplatin], in the data set with CT-DNA, the “modification of the CD spectrum of CT-DNA” value was “decrease of the band at 245 nm and an increase of the band at 280 nm”. Moreover, the EC50 with MDA-MB-231 [1] was 20400 ± 3400 nM; in the data set on A549 [2], 1700 ± 500 nM; in the data set on MCF-10A [3] it was 2900 ± 800 nM.

Regarding “[Pt(Me2N-pbt)(3-NH2-pic-κN,O)] [Complex 2]”, the EC50 is 260 ± 50 nM in the data set on MDA-MB-231 [4] (setting [10]); 800 ± 200 nM with MDA-MB-231 [4] (setting [11]); 1000 ± 200 nM in the data set on A549 [5] (setting [12]); 1900 ± 400 nM in the data set on A549 [5] (setting [13]); 400 ± 100 nM with MCF-10A [6] (setting [14]); 700 ± 200 nM with MCF-10A [6] (setting [15]). For the same compound, the “quantum yield (ϕΔ) of 1O2” value in data set [7] came out at 17.4%. The “stability in serum-free DMEM, UV–vis spectral changes, 24 h” value in data set [8] is recorded as “spectral features of both complexes changed”. Besides, the “stability in serum-free DMEM, UV–vis spectral changes, first 4 h” value in data set [8] is on record as “no spectral changes”.

“[Pt(Me2N-pbt)(4-COOH-pic-κN,O)] [Complex 4]”: the “photoactivity index (PI), EC50 dark / EC50 after irradiation, MDA-MB-231” value in the data set on MDA-MB-231 [4] (5 min irradiation at 450 nm) was “very limited phototoxicity”. Also, the EC50 in the data set with MDA-MB-231 [4] (setting [10]) was 15900 ± 3600 nM; in the data set on MDA-MB-231 [4] (setting [11]) it was 42400 ± 4200 nM; in the data set on A549 [5] (setting [12]), above 100000 nM; with A549 [5] (setting [13]), above 100000 nM; with MCF-10A [6] (setting [14]), 15000 ± 900 nM; with MCF-10A [6] (setting [15]), 21700 ± 4200 nM. Also, in the data set with A549 [5] (5 min irradiation at 450 nm), the “photoactivity index (PI), EC50 dark / EC50 after irradiation, A549” value is listed as “very limited phototoxicity”. Moreover, the “photoactivity index (PI), EC50 dark / EC50 after irradiation, MCF-10A” value in the data set with MCF-10A [6] (5 min irradiation at 450 nm) is “very limited phototoxicity”. Besides, in [8], the “stability in serum-free DMEM, UV–vis spectral changes, first 4 h” value is listed as “quantitative transformation”. The solubility entry in “Solubility (statements)” is recorded as “only soluble in DMSO”.

On to [Pt(Me2N-pbt)(o-dpb)], for which the IC50 is 830 nM in the data set with A549 [9] (1 min of irradiation (396 nm), read-out: IC50 A549 upon irradiation) and 1500 nM with HeLa (1 min of irradiation (396 nm), read-out: IC50 HeLa upon irradiation). Moreover, the “activity in the dark, A549” value in the data set on A549 [9] (dark) was “inactive”. The “activity in the dark, HeLa” value in the data set on HeLa (dark) is “inactive”.

Turning to [Pt(Me2N-pbt)(pic-κN,O)] [Complex 1], the EC50 is 170 ± 50 nM in the data set with MDA-MB-231 [4] (setting [10]); 500 ± 60 nM with MDA-MB-231 [4] (setting [11]); 570 ± 30 nM in the data set on A549 [5] (setting [12]); 1500 ± 100 nM with A549 [5] (setting [13]); 300 ± 100 nM in the data set on MCF-10A [6] (setting [14]); 470 ± 50 nM in the data set on MCF-10A [6] (setting [15]). Moreover, in [7], the “quantum yield (ϕΔ) of 1O2” value was 13.6%. Besides, in data set [8], the “stability in serum-free DMEM, UV–vis spectral changes, 24 h” value is on record as “further evolved”. The “stability in serum-free DMEM, UV–vis spectral changes, first 4 h” value in [8] is given as “first spectral modification”.
